Converted amounts (≈) assume the structure as drawn.
Experiments:
Assay in all cases: ≥ marks a high value that may be exact or a test limit, other limits are often not marked, values filed in µg/mL are converted to µM
[1] = tested on: Staphylococcus aureus ATCC 43300
[2] = tested on: Bacillus subtilis
[3] = tested on: Candida albicans ATCC 2002
[4] = tested on: Pseudomonas aeruginosa ATCC 27853
[5] = tested on: Pseudomonas aeruginosa PAO1
[6] = tested on: Staphylococcus aureus ATCC 25923
[7] = tested on: Escherichia coli
[8] = tested on: Staphylococcus aureus
[9] = tested on: Escherichia coli ATCC 25922
[10] = tested on: Klebsiella pneumoniae ATCC 700603
[11] = tested on: Escherichia coli DH5alpha
[12] = tested on: Escherichia coli UB1005

SMILES | MIC [2] [µM] | MIC [6] [µM] | MIC [7] [µM] | other results
CC(C)C[C@H](NC(=O)[C@H](CCCCN)NC(=O)[C@H](C)N)C(=O)N[C@@H](Cc1c[nH]c2ccccc12)C(=O)N[C@@H](CC(C)C)C(=O)N[C@@H](CCCCN)C(=O)N[C@@H](C)C(=O)N[C@@H](C)C(=O)N[C@@H](CCCCN)C(=O)N[C@@H](CC(C)C)C(=O)N[C@@H](Cc1c[nH]c2ccccc12)C(=O)N[C@@H](CC(C)C)C(=O)N[C@@H](CCCCN)C(=O)N[C@@H](C)C(N)=O [AKLWLKAAKLWLKA] |  |  |  | MIC [1]: 16 µM (≈ 26.2 µg/mL)
CC[C@H](C)[C@H](NC(=O)CNC(=O)[C@H](CO)NC(=O)[C@H](CC(C)C)NC(=O)[C@H](C)NC(=O)CNC(=O)[C@H](CC(C)C)NC(=O)[C@@H](NC(=O)[C@H](CC(C)C)NC(=O)[C@@H]1CCCN1C(=O)[C@H](CC(C)C)NC(=O)[C@@H](N)Cc1ccccc1)C(C)C)C(=O)N[C@@H](CC(C)C)C(=O)N1CCC[C@H]1C(=O)N[C@@H](CCCCN)C(=O)N[C@H](C(=O)N[C@@H](CC(C)C)C(N)=O)[C@@H](C)CC [FLPLVLGALSGILPKIL] | 5.32 (≈ 9.37 µg/mL) | 2.66 (≈ 4.69 µg/mL) |  | MIC [3]: 4.68 µM (≈ 8.26 µg/mL); MIC [4]: 2.66 µM (≈ 4.69 µg/mL); MIC [5]: 2.66 µM (≈ 4.69 µg/mL)
CC(C)C[C@H](NC(=O)[C@H](CCCCN)NC(=O)CN)C(=O)N[C@@H](Cc1c[nH]c2ccccc12)C(=O)N[C@@H](CC(C)C)C(=O)N[C@@H](CCCCN)C(=O)NCC(=O)NCC(=O)N[C@@H](CCCCN)C(=O)N[C@@H](CC(C)C)C(=O)N[C@@H](Cc1c[nH]c2ccccc12)C(=O)N[C@@H](CC(C)C)C(=O)N[C@@H](CCCCN)C(=O)NCC(=O)NCC(=O)N[C@@H](CCCCN)C(=O)N[C@@H](CC(C)C)C(=O)N[C@@H](Cc1c[nH]c2ccccc12)C(=O)N[C@@H](CC(C)C)C(=O)N[C@@H](CCCCN)C(=O)NCC(N)=O [GKLWLKGGKLWLKGGKLWLKG] |  |  |  | MIC [1]: 32 µM (≈ 75.7 µg/mL)
CC[C@H](C)[C@H](NC(=O)[C@@H](NC(=O)[C@@H]1CCCN1C(=O)[C@@H](NC(=O)[C@@H]1CCCN1C(=O)[C@H](CCCCN)NC(=O)[C@H](CCCCN)NC(=O)[C@H](CO)NC(=O)CN)C(C)C)[C@@H](C)CC)C(=O)N[C@@H](Cc1ccc(O)cc1)C(=O)N[C@H]1CSSC[C@@H](C(=O)N[C@@H](CCC(N)=O)C(=O)N[C@@H](CCCN=C(N)N)C(=O)N[C@@H](CCSC)C(=O)O)NC(=O)[C@H](CCCCN)NC(=O)CNC(=O)[C@H]([C@@H](C)O)NC(=O)[C@H](CCCN=C(N)N)NC(=O)[C@H](CCCN=C(N)N)NC(=O)[C@H](CCC(N)=O)NC1=O [GSKKPVPIIYCQRRTGKCQRM] |  |  |  | MIC [9]: 1.63 µM (≈ 4 µg/mL); MIC [10]: 3.27 µM (≈ 7.99 µg/mL)
NCCCC[C@H](NC(=O)[C@H](Cc1c[nH]c2ccccc12)NC(=O)CN)C(=O)N[C@@H](CCCN=C(N)N)C(=O)N[C@@H](CCCCN)C(=O)N[C@@H](CCCN=C(N)N)C(=O)N[C@@H](Cc1ccccc1)C(=O)NCC(=O)O [GWKRKRFG] | ≥ 200 | > 200 |  | MIC [11]: ≥ 200 µM; MIC [4]: > 200 µM
CC[C@H](C)[C@H](N)C(=O)N[C@@H](CC(N)=O)C(=O)N[C@@H](Cc1c[nH]c2ccccc12)C(=O)N[C@@H](CCCCN)C(=O)N[C@@H](CCCCN)C(=O)N[C@@H](CC(C)C)C(=O)NCC(=O)N[C@@H](CCCCN)C(=O)N[C@@H](CCCCN)C(=O)N[C@H](C(=O)N[C@@H](CC(C)C)C(=O)NCC(=O)N[C@@H](C)C(=O)N[C@@H](CC(C)C)C(N)=O)[C@@H](C)CC [INWKKLGKKILGAL] | 15.5 (≈ 24.5 µg/mL) |  | 43 (≈ 68 µg/mL) | 
CC[C@H](C)[C@H](N)C(=O)N[C@@H](CC(N)=O)C(=O)N[C@@H](Cc1c[nH]c2ccccc12)C(=O)N[C@@H](CC(C)C)C(=O)N[C@@H](CCCCN)C(=O)N[C@@H](CC(C)C)C(=O)NCC(=O)N[C@@H](CCCCN)C(=O)N[C@@H](CCCCN)C(=O)N[C@@H](CCSC)C(=O)N[C@@H](CCSC)C(=O)N[C@@H](CO)C(=O)N[C@@H](C)C(=O)N[C@@H](CC(C)C)C(=O)O [INWLKLGKKMMSAL] | 22.5 (≈ 36.7 µg/mL) |  | 100 (≈ 163 µg/mL) | 
CC[C@H](C)[C@H](NC(=O)[C@H](CO)NC(=O)[C@H](C)NC(=O)[C@@H](NC(=O)[C@@H](N)CCCCN)[C@@H](C)CC)C(=O)NCC(=O)N[C@@H](CCCCN)C(=O)N[C@@H](CCC(=O)O)C(=O)N[C@H](C(=O)N[C@@H](CC(C)C)C(=O)N[C@@H](CCCCN)C(=O)N[C@@H](C)C(=O)N[C@@H](CC(C)C)C(N)=O)C(C)C [KIASIGKEVLKAL] | ≥ 100 |  | 100 (≈ 137 µg/mL) | 

The next lines start with results.

MIC [2] [µM] | MIC [6] [µM] | MIC [7] [µM] | SMILES | other results
17.6 (≈ 31.2 µg/mL) |  | > 141 | CC[C@H](C)[C@H](NC(=O)[C@H](CO)NC(=O)[C@H](C)NC(=O)[C@@H]1CCCN1C(=O)[C@H](CC(C)C)NC(=O)CN)C(=O)N[C@@H](CO)C(=O)N[C@@H](Cc1c[nH]c2ccccc12)C(=O)N[C@H](C(=O)N[C@@H](CCCCN)C(=O)N[C@@H](CCCN=C(N)N)C(=O)N[C@@H](CCCCN)C(=O)N[C@@H](CCCN=C(N)N)C(=O)N[C@@H](CCC(N)=O)C(=O)N[C@@H](CCC(N)=O)C(N)=O)[C@@H](C)CC [GLPASISWIKRKRQQ] | MIC [8]: 141 µM (≈ 250 µg/mL)
≥ 45 |  | 8 (≈ 14.1 µg/mL) | CC[C@H](C)[C@H](N)C(=O)N[C@@H](CC(N)=O)C(=O)N[C@@H](Cc1c[nH]c2ccccc12)C(=O)N[C@@H](CCCCN)C(=O)N[C@@H](CCCCN)C(=O)N[C@H](C(=O)N[C@@H](Cc1ccccc1)C(=O)N[C@@H](CCC(N)=O)C(=O)N[C@@H](CCCCN)C(=O)N[C@H](C(=O)N[C@@H](CCCCN)C(=O)N[C@@H](CC(N)=O)C(=O)N[C@@H](CC(C)C)C(=O)N[C@H](C(N)=O)C(C)C)C(C)C)[C@@H](C)CC [INWKKIFQKVKNLV] | 
13.4 (≈ 37.5 µg/mL) | 13.4 (≈ 37.5 µg/mL) |  | CC[C@H](C)[C@H](NC(=O)[C@H](C)NC(=O)[C@H](CCCN=C(N)N)NC(=O)[C@H](Cc1ccc(O)cc1)NC(=O)[C@H](CC(C)C)NC(=O)[C@H](CC(N)=O)NC(=O)[C@H](Cc1ccc(O)cc1)NC(=O)CNC(=O)[C@H](C)NC(=O)[C@@H](NC(=O)[C@@H](NC(=O)[C@@H](NC(=O)[C@H](CCCN=C(N)N)NC(=O)[C@@H](NC(=O)[C@@H](NC(=O)[C@@H](NC(=O)[C@@H]1CCCN1C(=O)[C@H](Cc1c[nH]c2ccccc12)NC(=O)[C@H](Cc1ccccc1)NC(=O)[C@H](CCCN=C(N)N)NC(=O)[C@H](CCCCN)NC(=O)[C@@H](NC(=O)[C@@H](N)CCCN=C(N)N)[C@@H](C)CC)C(C)C)C(C)C)[C@@H](C)CC)[C@@H](C)O)C(C)C)C(C)C)C(=O)O [RIKRFWPVVIRTVVAGYNLYRAI] | MIC [3]: 0.84 µM (≈ 2.34 µg/mL); MIC [9]: 3.36 µM (≈ 9.38 µg/mL)
 | 28 (≈ 75 µg/mL) |  | CC[C@H](C)[C@H](NC(=O)[C@@H](NC(=O)[C@@H](NC(=O)[C@@H]1CCCN1C(=O)[C@H](Cc1c[nH]c2ccccc12)NC(=O)[C@H](Cc1ccccc1)NC(=O)[C@H](CCCN=C(N)N)NC(=O)[C@H](CCCCN)NC(=O)[C@@H](NC(=O)[C@@H](N)CCCN=C(N)N)[C@@H](C)CC)C(C)C)C(C)C)C(=O)N[C@@H](CCCN=C(N)N)C(=O)N[C@H](C(=O)N[C@H](C(=O)N[C@H](C(=O)N[C@@H](C)C(=O)NCC(=O)N[C@@H](Cc1ccc(O)cc1)C(=O)N[C@@H](CC(N)=O)C(=O)N[C@@H](CC(C)C)C(=O)N[C@@H](Cc1ccc(O)cc1)C(=O)N[C@@H](CCCN=C(N)N)C(=O)N[C@@H](C)C(=O)O)C(C)C)C(C)C)[C@@H](C)O [RIKRFWPVVIRTVVAGYNLYRA] | MIC [3]: 1.75 µM (≈ 4.69 µg/mL); MIC [9]: 1.75 µM (≈ 4.69 µg/mL)
 | 13.1 (≈ 32 µg/mL) |  | CC[C@H](C)[C@H](NC(=O)[C@H](CCCN=C(N)N)NC(=O)[C@H](CCCN=C(N)N)NC(=O)[C@@H]1CCCN1C(=O)[C@H](CCCN=C(N)N)NC(=O)[C@H](CCCN=C(N)N)NC(=O)[C@@H]1CCCN1C(=O)[C@H](CCCN=C(N)N)NC(=O)[C@@H]1CCCN1C(=O)[C@H](CC(C)C)NC(=O)[C@H](Cc1ccc(O)cc1)NC(=O)[C@@H]1CCCN1C(=O)[C@@H]1CCCN1C(=O)[C@H](CCCCN)NC(=O)[C@H](CC(=O)O)NC(=O)[C@@H](N)C(C)C)C(=O)N[C@@H](Cc1ccc(O)cc1)C(=O)N[C@@H](CC(N)=O)C(=O)N[C@@H](CCCN=C(N)N)C(N)=O [VDKPPYLPRPRRPRRIYNR] | MIC [12]: 1.02 µM (≈ 2.5 µg/mL); MIC [5]: 52.2 µM (≈ 128 µg/mL)
 | 13 (≈ 32 µg/mL) |  | CC[C@H](C)[C@H](NC(=O)[C@H](CCCN=C(N)N)NC(=O)[C@H](CCCN=C(N)N)NC(=O)[C@@H]1CCCN1C(=O)[C@H](Cc1ccc(O)cc1)NC(=O)[C@H](CCCN=C(N)N)NC(=O)[C@@H]1CCCN1C(=O)[C@H](CCCN=C(N)N)NC(=O)[C@@H]1CCCN1C(=O)[C@H](CC(C)C)NC(=O)[C@H](Cc1ccc(O)cc1)NC(=O)[C@@H]1CCCN1C(=O)[C@@H]1CCCN1C(=O)[C@H](CCCCN)NC(=O)[C@H](CC(=O)O)NC(=O)[C@@H](N)C(C)C)C(=O)N[C@@H](Cc1ccc(O)cc1)C(=O)N[C@@H](CC(N)=O)C(=O)N[C@@H](CCCN=C(N)N)C(N)=O [VDKPPYLPRPRYPRRIYNR] | MIC [12]: 2.04 µM (≈ 5 µg/mL); MIC [5]: 52.1 µM (≈ 128 µg/mL)
 | 0.391 (≈ 1 µg/mL) |  | CC(C)C[C@H](NC(=O)[C@H](Cc1ccc(O)cc1)NC(=O)[C@@H]1CCCN1C(=O)[C@@H]1CCCN1C(=O)[C@H](CCCCN)NC(=O)[C@H](CCCN=C(N)N)NC(=O)[C@@H](N)C(C)C)C(=O)N1CCC[C@H]1C(=O)N[C@@H](CCCN=C(N)N)C(=O)N1CCC[C@H]1C(=O)N[C@@H](CCCN=C(N)N)C(=O)N[C@@H](Cc1c[nH]c2ccccc12)C(=O)N1CCC[C@H]1C(=O)N[C@@H](CCCN=C(N)N)C(=O)N[C@@H](CCCN=C(N)N)C(=O)N[C@@H](Cc1ccccc1)C(=O)N[C@@H](Cc1ccc(O)cc1)C(=O)N[C@@H](CC(N)=O)C(=O)N[C@@H](CCCN=C(N)N)C(N)=O [VRKPPYLPRPRWPRRFYNR] | MIC [12]: 0.979 µM (≈ 2.5 µg/mL); MIC [5]: 3.13 µM (≈ 8 µg/mL)

From DBAASP
